Test results taken from patent US20110098177A1, “METHODS AND COMPOSITIONS OF PLANT MICRONUTRIENTS” (NOVUS INTERNATIONAL INC., priority 2006, published 2011).

Legend:
Type in all cases: in vivo
Aristotle bell pepper = conditions: in vivo
Procedure: (§1) The following experiments were performed in a green house during the fall of 2007 at GCREC, Balm, University of Florida. Fifteen products, at 3 different application rates were examined. The plot size was 2-gallon pots. Crop set-up, procedures and variables were as follows.
(§2) Transplants of ‘Florida-47’ tomato and ‘Aristotle’ bell pepper plants in the 4-true leaf stage (about 6 inches tall) were planted in 2-gal pots on Aug. 27, 2007. Pots were filled with a commercially available planting medium. This medium was selected based on the mineral composition of the products to be applied without providing significant nutritional inputs to the crops. Irrigation was provided with drip lines delivering between 0.50 and 0.33 gal/day/pot for tomato and bell pepper, respectively, and the crops were irrigated three times per day. No foliar pesticides were necessary.
(§3) There were four control treatments corresponding to each target micronutrient in which non-Fe, non-Mn, non-Zn or non-Cu pots received all other essential nutrients under non-limiting conditions.
(§4) Treatments were applied at three rates (high, medium and low) obtained from the estimated concentration of Zn, Fe, Cu, and Mn foliarly-applied in tomato and bell pepper in field situations (Table 1). Products were weighed and dissolved in 200 ml of deionized water with a non-ionic surfactant and applied to the newly-matured open leaves of each crop at 3 and 7 weeks after transplant (WAT). Treated pots were isolated during application to avoid cross-contamination of other treatments.
(§5) Medium nutrient concentration was determined 1 week before treatment. The mineral composition of the medium was 26.8 ppm NH4—N, 49 ppm NO3—N, 15.8 ppm P, 91.2 ppm K, 82.3 ppm Ca, 58.2 ppm Mg, 23.9 ppm Na, 125.6 ppm S, 1.33 ppm Fe, 0.39 ppm Mn, 0.35 ppm Zn, 0.05 pp, Cu, 0.04 ppm B, 0 ppm Mo, 0.73 ppm Al, and 12.1 ppm Si. The pH of the medium was 5.36 and the electric conductivity was 1.38 mS/cm. The foliar tissue analysis was performed at 6 WAT and the concentration of N, P, K, Mg, Ca, S, B, Zn, Mn, Fe, and Cu was determined by a commercial laboratory. Plant toxicity was determined at 4 WAT by using a 0-10 visual scale, where 0=no visible damage and 10=total plant death. Marketable fruit weight was collected 2 times in bell pepper and 4 times in tomato following USDA standards.
(§6) Data were analyzed using a general linear model, and means were separated using orthogonal contrasts at the 5% significance level.

Florida-47 tomato = conditions: in vivo
Procedure: as §1, §2, §3, §4, §5, §6

Tygress tomato plants [1] = assay: Foliar nutrient concentration at 6 WAT, open-field tomato (Examples 7-10)
Procedure: (§7) The following experiments were performed in open-field plots during the spring of 2008 at GCREC, Balm, University of Florida. Four products delivering Zn (BIOX-Z), Mn (BIOX-M), Cu (BIOX-Cu), and Fe (BIOX-Fe) were compared to other micronutrient supplement formulations in tomato and bell pepper plants.
(§8) The plot sizes for the tomato plants were 30-ft plots (15 plants per plot) and 15-ft plots were used for the bell pepper plants (30 plants per plot). Crop set-up, procedures and variables were as follows.
(§9) Transplants of ‘Tygress’ tomato plants and ‘Patriot’ bell pepper plants in the 4-true leaf stage (about 6 inches tall) were planted in raised beds in open-field plots. The cross-section of each raised bed was 28 inches wide at the top, 32 inches wide at the base, and 8 inches tall. Irrigation and non-micronutrient fertilizer were provided daily through two drip lines per bed (0.45 gal/100 ft bed/min) at recommended rates for tomato and bell pepper production in Florida. […] The height of the plants for each of the treatment groups was measured at 3 weeks after transplantation (WAT), just prior to treatment with the experimental foliar fertilizers.
(§10) All foliar fertilizers except BIOX-CM were applied to the various treatment groups at 3 weeks after transplantation (WAT) and again at 5 WAT. The BIOX-CM treatment was applied at 4 and 5 WAT. The working water volume was 60 gal/acre and a non-ionic surfactant (Ad-Spray 80) was added in the amount of 2 pints/100 gal water. All plots were sprayed with sprayers pressurized at 25 psi and the canopies of both crops were covered with the micronutrient solutions. Treated plots were isolated during foliar fertilizer application to avoid the cross-contamination of other treatments on adjoining plots.
(§11) Leaf samples were collected from the most recent mature leaves from each plant at 6 WAT (2 weeks after initial treatment). Foliar tissue analysis was performed by a commercial laboratory to determine the concentration of N, P, K, Mg, Ca, B, Zn, Mn, Fe, and Cu. Tomato marketable fruit weights were collected at 10 and 12 WAT, and the fruits were graded according to USDA standards. Pepper marketable fruit weights were determined beginning at 5 WAT over 5 weekly harvests. Fruit mineral analysis (N, P, K, Mg, Ca, B, Zn, Mn, Fe, and Cu) was performed on samples from the tomato harvest.
(§12) The experimental design was a randomized complete block design with 5 replications for each treatment. All comparison data were analyzed using a general linear model and the means of each treatment were separated with a Fisher's protected LSD test at the 5% significance level.

[2] = test system: Patriot bell pepper plants; assay: Foliar nutrient concentration at 6 WAT, open-field bell pepper (Examples 7-10)
Procedure: as §7, §8, §9, §10, §11, §12

Tygress tomato plants [3] = assay: Marketable yield, open-field tomato (Examples 7-10)
Procedure: as §7, §8, §9, §10, §11, §12

[4] = test system: Patriot bell pepper plants; assay: Marketable yield, open-field bell pepper (Examples 7-10)
Procedure: as §7, §8, §9, §10, §11, §12

Tygress tomato plants [5] = assay: Nutrient concentration of tomato fruits at 10 WAT, open field (Examples 7-10)
Procedure: as §7, §8, §9, §10, §11, §12

[6] = 6 WAT, open field, product rate as Table 17
[7] = open field, lb/acre/season: BIOX-Z 1.3, Cu 6.7, M 23.0, Fe 3.2, INC 4.0, INZ 0.6, CM 10.0, GZ 1.0, GF 4.0, EDZ 1.4, EDM 23.0
[8] = 10 WAT, open field, product rate as Table 17

Compound: iron glycinate [BIOX-GF]
- Pepper toxicity (Aristotle bell pepper): 0
- Tomato toxicity (Florida-47 tomato): 0
- Foliar B concentration of tomato plants (Tygress tomato plants [1]; in vivo): 21 ppm
- Foliar Ca concentration of tomato plants (Tygress tomato plants [1]; in vivo): 0.2%
- Foliar Cu concentration of tomato plants (Tygress tomato plants [1]; in vivo): 22 ppm
- Foliar Fe concentration of tomato plants (Tygress tomato plants [1]; in vivo): 85 ppm
- Foliar K concentration of tomato plants (Tygress tomato plants [1]; in vivo): 8.5%
- Foliar Mg concentration of tomato plants (Tygress tomato plants [1]; in vivo): 0.38%
- Foliar Mn concentration of tomato plants (Tygress tomato plants [1]; in vivo): 42 ppm
- Foliar N concentration of tomato plants (Tygress tomato plants [1]; in vivo): 4.3%
- Foliar P concentration of tomato plants (Tygress tomato plants [1]; in vivo): 0.71%
- Foliar Zn concentration of tomato plants (Tygress tomato plants [1]; in vivo): 332 ppm
- Foliar nutrient concentration: B ([2]; in vivo): 43 ppm
- Foliar nutrient concentration: Ca ([2]; in vivo): 1.8%
- Foliar nutrient concentration: Cu ([2]; in vivo): 453 ppm
- Foliar nutrient concentration: Fe ([2]; in vivo): 305 ppm
- Foliar nutrient concentration: K ([2]; in vivo): 5.7%
- Foliar nutrient concentration: Mg ([2]; in vivo): 0.58%
- Foliar nutrient concentration: Mn ([2]; in vivo): 266 ppm
- Foliar nutrient concentration: N ([2]; in vivo): 5.0%
- Foliar nutrient concentration: P ([2]; in vivo): 0.21%
- Foliar nutrient concentration: Zn ([2]; in vivo): 322 ppm
- Marketable yield, Tomato (Tygress tomato plants [3]; in vivo): 18.5 a ton/acre
- Tomato marketable yield compared to control, statement (Tygress tomato plants [3]; in vivo): significantly higher tomato marketable yield compared to control
- Marketable yield, Bell Pepper ([4]; in vivo): 7.0 ton/acre
- Nutrient concentration of tomato fruits: B (Tygress tomato plants [5]; in vivo): 21 ppm
- Nutrient concentration of tomato fruits: Ca (Tygress tomato plants [5]; in vivo): 0.2%
- Nutrient concentration of tomato fruits: Cu (Tygress tomato plants [5]; in vivo): 22 ppm
- Nutrient concentration of tomato fruits: Fe (Tygress tomato plants [5]; in vivo): 85 ppm
- Nutrient concentration of tomato fruits: K (Tygress tomato plants [5]; in vivo): 8.5%
- Nutrient concentration of tomato fruits: Mg (Tygress tomato plants [5]; in vivo): 0.38%
- Nutrient concentration of tomato fruits: Mn (Tygress tomato plants [5]; in vivo): 42 ppm
- Nutrient concentration of tomato fruits: N (Tygress tomato plants [5]; in vivo): 4.3%
- Nutrient concentration of tomato fruits: P (Tygress tomato plants [5]; in vivo): 0.71%
- Nutrient concentration of tomato fruits: Zn (Tygress tomato plants [5]; in vivo): 332 ppm

Compound: manganese citrate [BIOX-CM]
- Foliar concentration of Mn of tomato plants, statement (Tygress tomato plants [1]; 6 WAT, open field): significantly higher foliar concentration of Mn compared to control
- Foliar B concentration of tomato plants (Tygress tomato plants [1]; [6]): 43 ppm
- Foliar Ca concentration of tomato plants (Tygress tomato plants [1]; [6]): 1.8%
- Foliar Cu concentration of tomato plants (Tygress tomato plants [1]; [6]): 326 ppm
- Foliar Fe concentration of tomato plants (Tygress tomato plants [1]; [6]): 85 ppm
- Foliar K concentration of tomato plants (Tygress tomato plants [1]; [6]): 5.0 b %
- Foliar Mg concentration of tomato plants (Tygress tomato plants [1]; [6]): 0.66%
- Foliar Mn concentration of tomato plants (Tygress tomato plants [1]; [6]): 272 b ppm
- Foliar N concentration of tomato plants (Tygress tomato plants [1]; [6]): 5.1%
- Foliar P concentration of tomato plants (Tygress tomato plants [1]; [6]): 0.24 a %
- Foliar Zn concentration of tomato plants (Tygress tomato plants [1]; [6]): 242 b ppm
- Foliar B concentration of bell pepper plants [2, 6]: 63 ppm
- Foliar Ca concentration of bell pepper plants [2, 6]: 4.2%
- Foliar Cu concentration of bell pepper plants [2, 6]: 364 ppm
- Foliar Fe concentration of bell pepper plants [2, 6]: 121 ppm
- Foliar K concentration of bell pepper plants [2, 6]: 3.6%
- Foliar Mg concentration of bell pepper plants [2, 6]: 0.47%
- Foliar Mn concentration of bell pepper plants [2, 6]: 594 ppm
- Foliar N concentration of bell pepper plants [2, 6]: 4.3%
- Foliar P concentration of bell pepper plants [2, 6]: 0.23%
- Foliar Zn concentration of bell pepper plants [2, 6]: 44 ppm
- Marketable yield, Tomato (Tygress tomato plants [3]; [7]): 13.9 b ton/acre
- Marketable yield, Bell Pepper [4, 7]: 8.0 ton/acre
- B concentration of tomato fruits (Tygress tomato plants [5]; [8]): 22 ppm
- Ca concentration of tomato fruits (Tygress tomato plants [5]; [8]): 0.2%
- Cu concentration of tomato fruits (Tygress tomato plants [5]; [8]): 21 b ppm
- Fe concentration of tomato fruits (Tygress tomato plants [5]; [8]): 73 b ppm
- K concentration of tomato fruits (Tygress tomato plants [5]; [8]): 7.9%
- Mg concentration of tomato fruits (Tygress tomato plants [5]; [8]): 0.37%
- Mn concentration of tomato fruits (Tygress tomato plants [5]; [8]): 40 b ppm
- N concentration of tomato fruits (Tygress tomato plants [5]; [8]): 4.2%
- P concentration of tomato fruits (Tygress tomato plants [5]; [8]): 0.57%
- Zn concentration of tomato fruits (Tygress tomato plants [5]; [8]): 217 b ppm

Compound: NCC(=O)[O-].NCC(=O)[O-].[Zn+2] [BIOX-GZ, zinc glycinate]
- Pepper toxicity (Aristotle bell pepper): 0
- Tomato toxicity (Florida-47 tomato): 0
- Foliar B concentration of tomato plants (Tygress tomato plants [1]; in vivo): 44 ppm
- Foliar Ca concentration of tomato plants (Tygress tomato plants [1]; in vivo): 1.8%
- Foliar Cu concentration of tomato plants (Tygress tomato plants [1]; in vivo): 482 ppm
- Foliar Fe concentration of tomato plants (Tygress tomato plants [1]; in vivo): 94 ppm
- Foliar K concentration of tomato plants (Tygress tomato plants [1]; in vivo): 5.0%
- Foliar Mg concentration of tomato plants (Tygress tomato plants [1]; in vivo): 0.61%
- Foliar Mn concentration of tomato plants (Tygress tomato plants [1]; in vivo): 278 ppm
- Foliar N concentration of tomato plants (Tygress tomato plants [1]; in vivo): 4.6%
- Foliar P concentration of tomato plants (Tygress tomato plants [1]; in vivo): 0.22%
- Foliar Zn concentration of tomato plants (Tygress tomato plants [1]; in vivo): 369 b ppm
- Foliar B concentration of bell pepper plants ([2]; in vivo): 59 ppm
- Foliar Ca concentration of bell pepper plants ([2]; in vivo): 4.2%
- Foliar Cu concentration of bell pepper plants ([2]; in vivo): 429 ppm
- Foliar Fe concentration of bell pepper plants ([2]; in vivo): 118 ppm
- Foliar K concentration of bell pepper plants ([2]; in vivo): 3.4%
- Foliar Mg concentration of bell pepper plants ([2]; in vivo): 0.49%
- Foliar Mn concentration of bell pepper plants ([2]; in vivo): 282 ppm
- Foliar N concentration of bell pepper plants ([2]; in vivo): 4.4%
- Foliar P concentration of bell pepper plants ([2]; in vivo): 0.24%
- Foliar Zn concentration of bell pepper plants ([2]; in vivo): 145 a ppm
- Foliar Zn concentration of bell pepper plants compared to control, statement ([2]; in vivo): significantly higher foliar concentration of Zn
- Marketable yield, Tomato (Tygress tomato plants [3]; in vivo): 16.8 ton/acre
- Tomato marketable yield compared to control, statement (Tygress tomato plants [3]; in vivo): significantly higher than the control tomato harvest
- Marketable yield, Bell Pepper ([4]; in vivo): 6.3 ton/acre
- B concentration of tomato fruits (Tygress tomato plants [5]; in vivo): 23 ppm
- Ca concentration of tomato fruits (Tygress tomato plants [5]; in vivo): 0.2%
- Cu concentration of tomato fruits (Tygress tomato plants [5]; in vivo): 23 ppm
- Fe concentration of tomato fruits (Tygress tomato plants [5]; in vivo): 87 ppm
- K concentration of tomato fruits (Tygress tomato plants [5]; in vivo): 7.8%
- Mg concentration of tomato fruits (Tygress tomato plants [5]; in vivo): 0.37%
- Mn concentration of tomato fruits (Tygress tomato plants [5]; in vivo): 43 ppm
- N concentration of tomato fruits (Tygress tomato plants [5]; in vivo): 4.3%
- P concentration of tomato fruits (Tygress tomato plants [5]; in vivo): 0.61%
- Zn concentration of tomato fruits (Tygress tomato plants [5]; in vivo): 379 ppm
